Source: PMC9013686, “Inter-individual variation in chlorpyrifos toxicokinetics characterized by physiologically based kinetic (PBK) and Monte Carlo simulation comparing human liver microsome and Supersome™ cytochromes P450 (CYP)-specific kinetic data as model input” (Archives of Toxicology, 2022)
Values joined by “and” are separate entries in the source; they are usually repeats but may differ in a detail not shown here. Equal values may be shown once. Marks after values point to notes of the source that are not given here.

How the values were obtained:
[1] = PBK modelling with Monte Carlo simulation (Supersome-based and HLM-based); design: species or system human; details: oral 0.5 mg/kg bw CPF, in vivo data Nolan et al. [1984]
Source text: Compared to the PBK model of Zhao et al. ([2019]), only the fractional absorption was changed to 0.462, which is the mean value of reported fa values from Timchalk et al. ([2002]) (fa = 0.224) and Nolan et al. ([1984]) (fa = 0.7), while for the other model parameters (non-kinetic), the mean values as reported in Zhao et al. ([2019]) were used.
Compared to the model of Zhao et al. ([2019]), in the Supersome™-based PBK model approach, the kinetic parameters of pathway 1 and pathway 2 were replaced from HLM-derived values to Supersome™-derived values, while the kinetic parameters of pathway 3 were kept the same. For pathway 4, instead of using the reported kinetic parameters from Mosquin et al. ([2009]), the calculated mean values of kinetic parameters obtained based on 25 individual HP samples derived by the present study were used. […]
The performance of the Supersome™-based PBK model and the HLM-based PBK model (biphasic) were evaluated by comparing their predicted time-dependent TCPy and CPF blood concentrations including the maximum total (bound and unbound) blood concentration (Cmax) or time-dependent blood concentration, and the cumulative time-dependent urinary TCPy excretion with corresponding available in vivo data (Drevenkar et al. [1993]; Nolan et al. [1984]; Timchalk et al. [2002]) upon similar dosing regimens or estimated dose level. […]

[2] = test system: PON1 in plasma; experiment: PON1-catalyzed detoxification of CPO to TCPy in individual human plasma (pathway 4); type: in vitro ADME; details: for CE / Scaled CE / Vmax / Vmax (app) / Scaled Vmax: CPO to TCPy; for Scaled Vmax: Eq 7
Experimental: After 1 min preincubation in a shaking 37 °C water bath, 1 µl of individual HP was added into the incubation system. Control incubations were performed by replacing plasma with the same amount of 50 mM Tris–HCl (pH 7.4). The total volume of the incubation mixtures was 200 µl. The incubation lasted for 1.5 min at 37 °C and was terminated by addition of 200 µl ice cold ACN and subsquently put on ice. Samples were subsequently centrifuged at 16,000 g (4 ℃) for 5 min and analyzed by UPLC-PDA. […]
In pathway 4, the in vivo VmaxHP (µmol/h) was extrapolated from its corresponding mean of the apparent VmaxHP(app) (nmol/min/ml plasma) of 25 individuals HP using Eq. 7:7 VmaxHP=VmaxHP(app)×60×1000×VB×0.55/1000,

[3] = test system: paraoxonase1 (PON1) in liver; details: Pathway 3 (CPO to TCPy in liver); pooled HLMs; ref Zhao et al. ([2019]); cited from earlier work

With Oc1nc(Cl)c(Cl)cc1Cl [TCPy, 3,5,6-trichloro-2-pyridinol] the “predicted blood Cmax versus mean in vivo Cmax” value ([1]; both PBK models) was 2.2 fold and the “predicted urinary excretion at 120 h versus in vivo value” [1] was 0.8 fold.

With CCOP(=O)(OCC)Oc1nc(Cl)c(Cl)cc1Cl [CPO, chlorpyrifos-oxon] the “difference between the highest and the lowest CE” value ([2]; CPO detoxification in plasma of 25 individuals) was “around 2.6 fold”, the CE ([2]; plasma individual 1 (64)) was 4.1 ml/min/ml plasma and the “Scaled CE” value ([2]; plasma individual 1 (64)) was 750.1 L/h. The Vmax ([2]; plasma individual 1 (64)) was 1596 nmol/min/ml plasma, the “Vmax (app)” value ([2]; plasma individual 1 (64)) was 21.78 nmol/min/mg plasma protein and the “Scaled Vmax” value ([2]; plasma individual 1 (64)) was 291247 µmol/h. For the same compound, the CE ([2]; plasma individual 2 (65)) was 4.0 ml/min/ml plasma, the “Scaled CE” value ([2]; plasma individual 2 (65)) was 724.7 L/h and the Vmax ([2]; plasma individual 2 (65)) was 1233 nmol/min/ml plasma. For the same compound, the “Vmax (app)” value ([2]; plasma individual 2 (65)) was 17.32 nmol/min/mg plasma protein, the “Scaled Vmax” value ([2]; plasma individual 2 (65)) was 224952 µmol/h and the CE ([2]; plasma individual 3 (56)) was 6.4 ml/min/ml plasma. The “Scaled CE” value ([2]; plasma individual 3 (56)) was 1172.4 L/h, the Vmax ([2]; plasma individual 3 (56)) was 2439 nmol/min/ml plasma and the “Vmax (app)” value ([2]; plasma individual 3 (56)) was 32.15 nmol/min/mg plasma protein. For the same compound, the “Scaled Vmax” value ([2]; plasma individual 3 (56)) was 445176 µmol/h, the CE ([2]; plasma individual 4 (52)) was 5.0 ml/min/ml plasma and the “Scaled CE” value ([2]; plasma individual 4 (52)) was 915.9 L/h. The Vmax ([2]; plasma individual 4 (52)) was 1591 nmol/min/ml plasma, the “Vmax (app)” value ([2]; plasma individual 4 (52)) was 22.39 nmol/min/mg plasma protein and the “Scaled Vmax” value ([2]; plasma individual 4 (52)) was 290427 µmol/h. The CE ([2]; plasma individual 5 (51)) was 5.2 ml/min/ml plasma, the “Scaled CE” value ([2]; plasma individual 5 (51)) was 939.9 L/h and the Vmax ([2]; plasma individual 5 (51)) was 3284 nmol/min/ml plasma. The “Vmax (app)” value ([2]; plasma individual 5 (51)) was 45.36 nmol/min/mg plasma protein, the “Scaled Vmax” value ([2]; plasma individual 5 (51)) was 599306 µmol/h and the CE ([2]; plasma individual 6 (57)) was 5.7 ml/min/ml plasma. The “Scaled CE” value ([2]; plasma individual 6 (57)) was 1047.5 L/h, the Vmax ([2]; plasma individual 6 (57)) was 1878 nmol/min/ml plasma and the “Vmax (app)” value ([2]; plasma individual 6 (57)) was 23.22 nmol/min/mg plasma protein. For the same compound, the “Scaled Vmax” value ([2]; plasma individual 6 (57)) was 342626 µmol/h, the CE ([2]; plasma individual 7) was 7.9 ml/min/ml plasma and the “Scaled CE” value ([2]; plasma individual 7) was 1441.5 L/h. The Vmax ([2]; plasma individual 7) was 1203 nmol/min/ml plasma, the “Vmax (app)” value ([2]; plasma individual 7) was 14.99 nmol/min/mg plasma protein and the “Scaled Vmax” value ([2]; plasma individual 7) was 219543 µmol/h. For the same compound, the CE ([2]; plasma individual 8) was 7.3 ml/min/ml plasma, the “Scaled CE” value ([2]; plasma individual 8) was 1332.3 L/h and the Vmax ([2]; plasma individual 8) was 1663 nmol/min/ml plasma. For the same compound, the “Vmax (app)” value ([2]; plasma individual 8) was 21.31 nmol/min/mg plasma protein, the “Scaled Vmax” value ([2]; plasma individual 8) was 303506 µmol/h and the CE ([2]; plasma individual 9) was 7.6 ml/min/ml plasma. For the same compound, the “Scaled CE” value ([2]; plasma individual 9) was 1391.7 L/h, the Vmax ([2]; plasma individual 9) was 2157 nmol/min/ml plasma and the “Vmax (app)” value ([2]; plasma individual 9) was 27.46 nmol/min/mg plasma protein. For the same compound, the “Scaled Vmax” value ([2]; plasma individual 9) was 393583 µmol/h, the CE ([2]; plasma individual 10) was 9.2 ml/min/ml plasma and the “Scaled CE” value ([2]; plasma individual 10) was 1671.6 L/h. The Vmax ([2]; plasma individual 10) was 2370 nmol/min/ml plasma, the “Vmax (app)” value ([2]; plasma individual 10) was 28.9 nmol/min/mg plasma protein and the CE ([2]; plasma individual 11) was 6.4 ml/min/ml plasma. For the same compound, the “Scaled CE” value ([2]; plasma individual 11) was 1168.7 L/h, the Vmax ([2]; plasma individual 11) was 1314 nmol/min/ml plasma and the “Vmax (app)” value ([2]; plasma individual 11) was 17.42 nmol/min/mg plasma protein. The “Scaled Vmax” value ([2]; plasma individual 11) was 239710 µmol/h, the CE ([2]; plasma individual 12) was 8.2 ml/min/ml plasma and the “Scaled CE” value ([2]; plasma individual 12) was 1500.5 L/h. The Vmax ([2]; plasma individual 12) was 2461 nmol/min/ml plasma, the “Vmax (app)” value ([2]; plasma individual 12) was 26.75 nmol/min/mg plasma protein and the “Scaled Vmax” value ([2]; plasma individual 12) was 449105 µmol/h. For the same compound, the CE ([2]; plasma individual 13) was 6.6 ml/min/ml plasma, the “Scaled CE” value ([2]; plasma individual 13) was 1211.5 L/h and the Vmax ([2]; plasma individual 13) was 1498 nmol/min/ml plasma. For the same compound, the “Vmax (app)” value ([2]; plasma individual 13) was 20.58 nmol/min/mg plasma protein, the “Scaled Vmax” value ([2]; plasma individual 13) was 273437 µmol/h and the CE ([2]; plasma individual 14) was 5.8 ml/min/ml plasma. The “Scaled CE” value ([2]; plasma individual 14) was 1053.7 L/h, the Vmax ([2]; plasma individual 14) was 2064 nmol/min/ml plasma and the “Vmax (app)” value ([2]; plasma individual 14) was 28.36 nmol/min/mg plasma protein. For the same compound, the “Scaled Vmax” value ([2]; plasma individual 14) was 376692 µmol/h, the CE ([2]; plasma individual 15) was 9.8 ml/min/ml plasma and the “Scaled CE” value ([2]; plasma individual 15) was 1793.2 L/h. For the same compound, the Vmax ([2]; plasma individual 15) was 1840 nmol/min/ml plasma, the “Vmax (app)” value ([2]; plasma individual 15) was 24.79 nmol/min/mg plasma protein and the “Scaled Vmax” value ([2]; plasma individual 15) was 335867 µmol/h. For the same compound, the CE ([2]; plasma individual 16) was 3.7 ml/min/ml plasma, the “Scaled CE” value ([2]; plasma individual 16) was 671.6 L/h and the Vmax ([2]; plasma individual 16) was 912 nmol/min/ml plasma. The “Vmax (app)” value ([2]; plasma individual 16) was 11.28 nmol/min/mg plasma protein, the “Scaled Vmax” value ([2]; plasma individual 16) was 166366 µmol/h and the CE ([2]; plasma individual 17) was 8.1 ml/min/ml plasma. For the same compound, the “Scaled CE” value ([2]; plasma individual 17) was 1480.1 L/h, the Vmax ([2]; plasma individual 17) was 2287 nmol/min/ml plasma and the “Vmax (app)” value ([2]; plasma individual 17) was 32.03 nmol/min/mg plasma protein. For the same compound, the “Scaled Vmax” value ([2]; plasma individual 17) was 417377 µmol/h, the CE ([2]; plasma individual 18) was 5.6 ml/min/ml plasma and the “Scaled CE” value ([2]; plasma individual 18) was 1029.2 L/h. The Vmax ([2]; plasma individual 18) was 1132 nmol/min/ml plasma, the “Vmax (app)” value ([2]; plasma individual 18) was 15.18 nmol/min/mg plasma protein and the “Scaled Vmax” value ([2]; plasma individual 18) was 206569 µmol/h. The CE ([2]; plasma individual 19 (48)) was 5.3 ml/min/ml plasma, the “Scaled CE” value ([2]; plasma individual 19 (48)) was 971.2 L/h and the Vmax ([2]; plasma individual 19 (48)) was 1329 nmol/min/ml plasma. The “Vmax (app)” value ([2]; plasma individual 19 (48)) was 18.21 nmol/min/mg plasma protein, the “Scaled Vmax” value ([2]; plasma individual 19 (48)) was 242612 µmol/h and the CE ([2]; plasma individual 20 (49)) was 6.9 ml/min/ml plasma. For the same compound, the “Scaled CE” value ([2]; plasma individual 20 (49)) was 1252.4 L/h, the Vmax ([2]; plasma individual 20 (49)) was 2111 nmol/min/ml plasma and the “Vmax (app)” value ([2]; plasma individual 20 (49)) was 24.85 nmol/min/mg plasma protein. For the same compound, the “Scaled Vmax” value ([2]; plasma individual 20 (49)) was 385226 µmol/h, the CE ([2]; plasma individual 21 (44)) was 6.5 ml/min/ml plasma and the “Scaled CE” value ([2]; plasma individual 21 (44)) was 1181.9 L/h. For the same compound, the Vmax ([2]; plasma individual 21 (44)) was 1835 nmol/min/ml plasma, the “Vmax (app)” value ([2]; plasma individual 21 (44)) was 23.05 nmol/min/mg plasma protein and the “Scaled Vmax” value ([2]; plasma individual 21 (44)) was 334943 µmol/h. The CE ([2]; plasma individual 22 (34)) was 7.3 ml/min/ml plasma, the “Scaled CE” value ([2]; plasma individual 22 (34)) was 1325.9 L/h and the Vmax ([2]; plasma individual 22 (34)) was 1726 nmol/min/ml plasma. For the same compound, the “Vmax (app)” value ([2]; plasma individual 22 (34)) was 24.05 nmol/min/mg plasma protein, the “Scaled Vmax” value ([2]; plasma individual 22 (34)) was 315041 µmol/h and the CE ([2]; plasma individual 23 (47)) was 5.7 ml/min/ml plasma. The “Scaled CE” value ([2]; plasma individual 23 (47)) was 1044.7 L/h, the Vmax ([2]; plasma individual 23 (47)) was 2141 nmol/min/ml plasma and the “Vmax (app)” value ([2]; plasma individual 23 (47)) was 24.05 nmol/min/mg plasma protein. The “Scaled Vmax” value ([2]; plasma individual 23 (47)) was 390628 µmol/h, the CE ([2]; plasma individual 24 (28)) was 8.7 ml/min/ml plasma and the “Scaled CE” value ([2]; plasma individual 24 (28)) was 1595.0 L/h. The Vmax ([2]; plasma individual 24 (28)) was 2357 nmol/min/ml plasma, the “Vmax (app)” value ([2]; plasma individual 24 (28)) was 28.44 nmol/min/mg plasma protein and the “Scaled Vmax” value ([2]; plasma individual 24 (28)) was 430169 µmol/h. The CE ([2]; plasma individual 25 (41)) was 7.1 ml/min/ml plasma, the “Scaled CE” value ([2]; plasma individual 25 (41)) was 1293.4 L/h and the Vmax ([2]; plasma individual 25 (41)) was 1676 nmol/min/ml plasma. The “Vmax (app)” value ([2]; plasma individual 25 (41)) was 22.13 nmol/min/mg plasma protein, the “Scaled Vmax” value ([2]; plasma individual 25 (41)) was 305884 µmol/h and the “Vmax (mean)” value ([2]; Pathway 4 (CPO to TCPy in plasma), mean of 25 individual HP samples) was 1844 nmol/min/ml plasma and 1844.000^i nmol/min/ml plasma. For the same compound, the Km [3] was 628 µM and the Vmax [3] was 37.980 ^e nmol/min/mg microsomal protein.
